Broadly, the kinetic solubility is solubility judged after dilution from a stock solution rather than from solid.

Results on 40 compounds are retold here after PubChem BioAssay AID1996.

The structures appear in SMILES notation. ≈ marks a conversion by molar mass, not a printed value.

For the series the following is noted: buffer; pH 7.4; 200.0 µM.
`Nc1ncncc1-c1ccc(Cl)cc1`: the kinetic solubility is over 30.8 µg/mL.

With `O=C(NCC1CCCO1)C1CCCN1C(=O)Nc1ccc(Cl)cc1` (stereo not given), the kinetic solubility is over 52.8 µg/mL.

In the case of `CSc1ccccc1C(=O)C1CCCN(Cc2ccncc2)C1` (stereo not given), the kinetic solubility came to 41.4 µg/mL (≈ 127 µM).

The compound `O=C(NCCc1csc(-c2cccc(F)c2)n1)c1ccco1` yielded a solubility (kinetic) of over 47.5 µg/mL.

Take `CN1CCN(C(=O)c2ccc(CNS(=O)(=O)c3ccc(F)c(Cl)c3)cc2)CC1`: the kinetic solubility was found to be 59.4 µg/mL (≈ 139 µM).

In turn, `CSc1ccccc1NC(=O)c1ccc2c(c1)CCN2S(C)(=O)=O` yielded a solubility (kinetic) of 9.1 µg/mL (≈ 25.1 µM).

Turning to `CN(Cc1cccc(F)c1)C(=O)c1ccc2c(=O)n3c(nc2c1)CCC3`, the solubility (kinetic) was found to be 49.8 µg/mL (≈ 142 µM).

As for `O=C(CNC(=O)c1cc(Cl)cc([N+](=O)[O-])c1)NC1CC1`, the solubility (kinetic) is over 44.7 µg/mL.

In the case of `CC(=O)c1cc(CN2CCN(CC=C(C)C)C(CCO)C2)cs1` (stereo not given), the kinetic solubility was over 50.5 µg/mL.

Take `Cn1c(SCC(N)=O)nnc1-c1ccc(C(C)(C)C)cc1`: the kinetic solubility is over 45.7 µg/mL.

For the compound `COc1cc(SC)ccc1C(=O)NCCN1CCOCC1`, the kinetic solubility is over 46.6 µg/mL.

Regarding `CCc1ccc(CCC(=O)Nc2ccc(C(=O)O)cc2)o1`, the kinetic solubility is over 43.1 µg/mL.

As to `O=c1cc(O)c2ccccc2n1Cc1ccccc1F`, the solubility (kinetic) was over 40.4 µg/mL.

For `Cc1cc(C)c(NC(=S)N(CCc2ccncc2)C(C)C)c(C)c1`, the solubility (kinetic) is 48.8 µg/mL (≈ 143 µM).

In turn, `COc1ccc(Cl)c(OC)c1C(=O)NC(=O)Nc1nc(C)nc(C)n1` gave a solubility (kinetic) of 51.4 µg/mL (≈ 141 µM).

In turn, `Cc1cc(Br)ccc1OCC(=O)NC1CCCC1` returned a solubility (kinetic) of 31.4 µg/mL (≈ 101 µM).

`Cc1nc2ccccn2c1C(=O)NNC(=O)Nc1ccccc1` showed a solubility (kinetic) of over 46.4 µg/mL.

As for `Cc1cc(S(=O)(=O)Nc2cccc(Cl)c2)c(C)s1`, the kinetic solubility came out at 37.4 µg/mL (≈ 124 µM).

For the compound `O=C(OCC(=O)N1CCc2ccccc21)c1ccc[nH]c1=O`, the solubility (kinetic) is 8.6 µg/mL (≈ 28.8 µM).

For `COc1ccc(-c2cn(-c3ccccc3)c(=S)[nH]2)cc1OC`, the kinetic solubility came to 22.6 µg/mL (≈ 72.3 µM).

On to `O=C(NCCOc1ccccc1)C1=CC=CN2CCS(=O)(=O)N=C12`, for which the kinetic solubility is over 52.1 µg/mL.

As to `Cc1ccc(C(=O)NCC(c2ccc(F)cc2)N2CCOCC2)s1` (stereo not given), the kinetic solubility is over 52.3 µg/mL.

`CC(C)CCN1C(=O)c2ccc(C(=O)OCC(=O)N(CC(C)C)C3CCS(=O)(=O)C3)cc2C1=O` (stereo not given): the kinetic solubility is 46.8 µg/mL (≈ 95 µM).

For `CCC(NC(=O)c1ccncc1)c1ccccc1` (stereo not given), the solubility (kinetic) is over 36 µg/mL.

Compound `COc1ccc(CNC(=O)CCC(=O)Nc2ccc(Cl)cc2)cc1` yielded a kinetic solubility of 1.3 µg/mL (≈ 3.75 µM).

On to `Cc1ccc(/C=C/C(=O)NC2CCS(=O)(=O)C2)cc1` (stereo not given), for which the solubility (kinetic) turned out to be 40.2 µg/mL (≈ 144 µM).

For the compound `COc1ccc(S(=O)(=O)N(C)C(C)CCc2ccco2)cc1` (stereo not given), the kinetic solubility is 35 µg/mL (≈ 108 µM).

For the compound `CC1CCc2sc(C(=O)NCc3ccccn3)cc2C1` (stereo not given), the solubility (kinetic) is 13 µg/mL (≈ 45.4 µM).

As to `COCCNc1nc(N)c([N+](=O)[O-])c(NCc2ccccc2)n1`, the solubility (kinetic) turned out to be 4.9 µg/mL (≈ 15.4 µM).

Take `COc1cc(OC)cc(C(=O)NCC(=O)OC2CCCCC2=O)c1` (stereo not given): the kinetic solubility was over 50.3 µg/mL.

Regarding `O=C1CCCN1CCCNC(=S)Nc1ccccc1`, the kinetic solubility came to 41 µg/mL (≈ 148 µM).

Compound `Cl.Oc1cc2c(cc1O)C(c1ccccc1)CNCC2` (stereo not given) returned a solubility (kinetic) of over 43.8 µg/mL.

In turn, `Cc1nnc(SCC(=O)NCC(=O)Nc2ccc(F)c(F)c2F)n1N` returned a solubility (kinetic) of over 56.2 µg/mL.

`O=C(O)CNC(=O)C(c1ccccc1)c1ccccc1` returned a kinetic solubility of over 40.4 µg/mL.

In the case of `CCOc1ccc(C2=CSC3=NCCN23)cc1[N+](=O)[O-]`, the solubility (kinetic) amounted to 36.2 µg/mL (≈ 124 µM).

Compound `COc1cccc(C=N[C@@H](CO)[C@@H](O)c2ccc([N+](=O)[O-])cc2)c1O` displayed a solubility (kinetic) of 50.6 µg/mL (≈ 146 µM).

`CCOc1ccc(NC(=S)NC23CN4CN(CN(C4)C2)C3)cc1` displayed a kinetic solubility of over 50 µg/mL.

With `Cc1nc2sccn2c(=O)c1CCN1CCC(=C(c2ccc(F)cc2)c2ccc(F)cc2)CC1`, the solubility (kinetic) was 12.2 µg/mL (≈ 25.5 µM).

The compound `O=C(CSc1ncccn1)N1CCC(Cc2ccccc2)CC1` showed a kinetic solubility of over 49.1 µg/mL.

As for `CC(C)c1ccc(OCc2ccc(C(=O)N3CCCC3)o2)cc1`, the solubility (kinetic) is 26.7 µg/mL (≈ 85.2 µM).
